Data as given in ChEMBL document CHEMBL4304826, “Lead identification and characterization of hTrkA type 2 inhibitors” (Bioorg Med Chem Lett, 2019).

Columns and labels:
in vivo [1] = conditions: Beagle, dog, plasma, po, 3 mg/kg
in vivo [2] = conditions: Beagle, dog, plasma, iv, 0.2 mg/kg
in vivo [3] = conditions: Beagle, dog, plasma, po, 3 mg/kg; remark: listed apart in the source
in vitro [4] = conditions: dog, liver microsomes
in vivo [5] = conditions: Beagle, dog, po, 3 mg/kg
in vivo [6] = conditions: Beagle, dog, plasma, iv, 0.2 mg/kg; remark: listed apart in the source
in vivo [7] = conditions: Beagle, dog, plasma, po, 3 mg/kg; remark: listed apart in the source
in vivo [8] = conditions: Beagle, dog, plasma, iv, 0.2 mg/kg; remark: listed apart in the source
in vitro [9] = conditions: dog, MDCK
in vivo [10] = conditions: Beagle, dog, plasma, po, 3 mg/kg; remark: listed apart in the source
in vitro [11] = conditions: dog, MDCK; remark: listed apart in the source
in vivo [12] = conditions: Beagle, dog, plasma, iv, 0.2 mg/kg; remark: listed apart in the source
in vivo [13] = conditions: Beagle, dog, plasma, iv, 0.2 mg/kg; remark: listed apart in the source
in vivo [14] = conditions: Beagle, dog, plasma, po, 3 mg/kg; remark: listed apart in the source

- half-life (in vivo [1]): 39 min
- AUC(0-inf) (in vivo [2]): 755 ng·h/mL
- AUC(0-inf) (in vivo [3]): 1790 ng·h/mL
- half-life (in vitro [4]): 9 min
- bioavailability (in vivo [5]): 16%
- clearance (in vivo [6]): 4.43 mL/min/kg
- Tmax (in vivo [7]): 45 min
- Vd (in vivo [8]): 0.164 L/kg
- Papp A→B (in vitro [9]): 0.14 ×10⁻⁶ cm/s
- AUC(0-t) (in vivo [10]): 1780 ng·h/mL
- Papp B→A (in vitro [11]): 3.73 ×10⁻⁶ cm/s
- AUC(0-t) (in vivo [12]): 748 ng·h/mL
- half-life (in vivo [13]): 37.8 min
- Cmax (in vivo [14]): 1140 ng/mL
Compound: Cc1ccc2nc(CSc3nnc(NC(=O)Nc4cccc(C(F)(F)F)c4)s3)cc(=O)n2c1
